{"source": "patent US12060586B2", "about": "“Cell data recorders and uses thereof” (The Broad Institute, Inc., priority 2018, dated 2024)", "tested_on": "Wnt signaling", "test": "Wnt signaling-driven luciferase expression in HEK293T cells", "format": "cell-based, human", "details": "HEK293T transfected with (LEF-TCF)7-BE3-P2A-Luc; LiCl 50 mM, 24 hours", "from_the_text": "The Wnt signaling pathway (also known as a signaling cascade) plays a crucial role in embryonic development and aberrant Wnt signaling is associated with a variety of diseases in humans (38). A recording of Wnt signaling was sought using CAMERA 2m in human cells. To achieve this goal, the expression of BE3 was placed under a (LEF-TCF)7 promoter (39) that responds to Wnt signaling to initiate downstream gene expression in CAMERA 2 m.3. […] A (LEF-TCF)7-BE3-P2A-Luc construct that expresses a firefly luciferase protein together with BE3 was included so that Wnt could be monitored simultaneously by luminescence and by high-throughput sequencing of the CCR5 recording locus. […] This increase in Wnt signaling was permanently recorded by a 53-fold increase in base editing at the CCR5 locus upon LiCl treatment (FIG. 5E).\nTo enable CAMERA 2m to record Wnt signaling, a (TCF/LEF)7 promoter was installed upstream BE3 and BE3-P2A-Luc to generate CAMERA 2 m.3 ((TCF/LEF)7-BE3 and ((TCF/LEF)7-BE3-P2A-Luc). TOPFlash ((TCF/LEF)7-Luc) (47) was used as a transient readout of Wnt signaling. A control plasmid that encodes the Renilla luciferase was included to normalize transfection efficiency for luminescence readout. […]\nFirefly luciferase and Renilla luciferase activities were measured 24 hours after LiCl treatment. […]", "data": [{"smiles": "[Cl-].[Li+]", "note": "[LiCl]", "values": [{"measurement": "fold increase in Wnt signaling-driven luciferase expression", "result": 140, "unit": "fold"}]}]}
